System: MV-4-11 cells
Assay: Gene expression microarray analysis (Affymetrix PrimeView) and GSEA
Type: cell-based, human
Parameters: RFU PODN (11730768_x_at) / Fold change /veh PODN (11730768_x_at) / RFU LINC00158 (11744669_a_at) / Fold change /veh LINC00158 (11744669_a_at) / RFU DUSP10 (11751237_a_at) / Fold change /veh DUSP10 (11751237_a_at) / RFU ID3 (11757404_x_at) / Fold change /veh ID3 (11757404_x_at) / RFU PLEKHG5 (11737974_s_at) / Fold change /veh PLEKHG5 (11737974_s_at) / RFU LRRC4B (11730491_at) / Fold change /veh LRRC4B (11730491_at) / RFU GIMAP4 (11747438_a_at) / Fold change /veh GIMAP4 (11747438_a_at) / RFU KRT8 (11758183_x_at) / Fold change /veh KRT8 (11758183_x_at) / RFU CNN1 (11734310_a_at) / Fold change /veh CNN1 (11734310_a_at) / RFU VPS37D (11726825_at) / Fold change /veh VPS37D (11726825_at) / RFU C10orf10 (11716522_x_at) / Fold change /veh C10orf10 (11716522_x_at) / RFU KIR2DL2 /// KIR2DL4 /// KIR2DL5A /// KIR2DL5B /// KIR2DS1 /// KIR2DS2 /// KIR2DS3 /// KIR2DS4 /// KIR3DL3 /// KIR3DL3 /// KIR3DS1 (11738374_at) / Fold change /veh KIR2DL2 /// KIR2DL4 /// KIR2DL5A /// KIR2DL5B /// KIR2DS1 /// KIR2DS2 /// KIR2DS3 /// KIR2DS4 /// KIR3DL3 /// KIR3DL3 /// KIR3DS1 (11738374_at) / RFU C1QL1 (11718748_at) / Fold change /veh C1QL1 (11718748_at) / RFU TMPRSS4 (11747572_a_at) / Fold change /veh TMPRSS4 (11747572_a_at) / RFU HAMP (11756126_x_at) / Fold change /veh HAMP (11756126_x_at) / RFU RNFT2 (11725882_a_at) / Fold change /veh RNFT2 (11725882_a_at) / RFU NR4A2 (11747474_a_at) / Fold change /veh NR4A2 (11747474_a_at) / RFU ABCC12 (11746883_a_at) / Fold change /veh ABCC12 (11746883_a_at) / RFU TMEM136 (11760407_x_at) / Fold change /veh TMEM136 (11760407_x_at) / RFU CLDN22 /// WWC2 (11732394_at) / Fold change /veh CLDN22 /// WWC2 (11732394_at) / RFU HLA-DPB1 (11760878_x_at) / Fold change /veh HLA-DPB1 (11760878_x_at) / RFU SPINT1 (11716480_a_at) / Fold change /veh SPINT1 (11716480_a_at) / RFU GAP43 (11754022_s_at) / Fold change /veh GAP43 (11754022_s_at) / RFU A4GNT (11735810_at) / Fold change /veh A4GNT (11735810_at) / RFU PRB3 (11715151_x_at) / Fold change /veh PRB3 (11715151_x_at) / RFU TUBB4B (11761932_at) / Fold change /veh TUBB4B (11761932_at) / RFU CAPN14 (11732068_a_at) / Fold change /veh CAPN14 (11732068_a_at) / RFU TMCC2 (11721928_a_at) / Fold change /veh TMCC2 (11721928_a_at) / RFU IRGQ (11745062_a_at) / Fold change /veh IRGQ (11745062_a_at) / RFU FAM174B (11720279_a_at) / Fold change /veh FAM174B (11720279_a_at) / RFU TMPRSS4 (11748680_a_at) / Fold change /veh TMPRSS4 (11748680_a_at) / RFU FAM212B (11763350_a_at) / Fold change /veh FAM212B (11763350_a_at) / RFU PLEKHG5 (11743358_a_at) / Fold change /veh PLEKHG5 (11743358_a_at) / RFU ZSCAN30 (11745921_a_at) / Fold change /veh ZSCAN30 (11745921_a_at) / RFU CMKLR1 (11741424_a_at) / Fold change /veh CMKLR1 (11741424_a_at) / RFU LOC101060620 /// MAPK8IP1 (11723275_at) / Fold change /veh LOC101060620 /// MAPK8IP1 (11723275_at) / RFU SPTSSB (11747773_x_at) / Fold change /veh SPTSSB (11747773_x_at) / RFU PRSS12 (11739890_at) / Fold change /veh PRSS12 (11739890_at) / RFU BIN1 (11741810_x_at) / Fold change /veh BIN1 (11741810_x_at) / RFU WNT11 (11732464_a_at) / Fold change /veh WNT11 (11732464_a_at) / RFU C10orf10 (11716521_a_at) / Fold change /veh C10orf10 (11716521_a_at) / RFU C5orf56 (11738089_at) / Fold change /veh C5orf56 (11738089_at) / RFU CYB561 (11721691_x_at) / Fold change /veh CYB561 (11721691_x_at) / RFU ANKRD19P (11752326_a_at) / Fold change /veh ANKRD19P (11752326_a_at) / RFU OR2T12 /// OR2T33 /// OR2T8 (11738714_s_at) / Fold change /veh OR2T12 /// OR2T33 /// OR2T8 (11738714_s_at) / RFU VCAN (11748164_a_at) / Fold change /veh VCAN (11748164_a_at) / RFU JSRP1 (11732532_at) / Fold change /veh JSRP1 (11732532_at) / RFU KRTAP10-11 (11738290_x_at) / Fold change /veh KRTAP10-11 (11738290_x_at) / RFU MYO3A (11730013_a_at) / Fold change /veh MYO3A (11730013_a_at) / RFU EBF3 (11725865_a_at) / Fold change /veh EBF3 (11725865_a_at) / RFU CAMK2N1 (11719241_x_at) / Fold change /veh CAMK2N1 (11719241_x_at) / RFU C5orf56 (11738088_a_at) / Fold change /veh C5orf56 (11738088_a_at) / RFU OLFML3 (11715873_a_at) / Fold change /veh OLFML3 (11715873_a_at) / RFU LOC100653217 /// NTM (11731650_a_at) / Fold change /veh LOC100653217 /// NTM (11731650_a_at) / RFU MAPK11 (11762145_a_at) / Fold change /veh MAPK11 (11762145_a_at) / RFU FIZ1 (11724087_x_at) / Fold change /veh FIZ1 (11724087_x_at) / RFU OASL (11726364_x_at) / Fold change /veh OASL (11726364_x_at) / RFU SOX15 (11748057_x_at) / Fold change /veh SOX15 (11748057_x_at) / RFU CD79A (11719716_a_at) / Fold change /veh CD79A (11719716_a_at) / RFU HIST1H1D (11736915_at) / Fold change /veh HIST1H1D (11736915_at) / RFU CASKIN2 (11723855_a_at) / Fold change /veh CASKIN2 (11723855_a_at) / RFU LOC730098 (11760151_x_at) / Fold change /veh LOC730098 (11760151_x_at) / RFU OR4N2 (11742367_at) / Fold change /veh OR4N2 (11742367_at) / RFU PRRT2 (11749266_a_at) / Fold change /veh PRRT2 (11749266_a_at) / RFU SNX32 (11753110_a_at) / Fold change /veh SNX32 (11753110_a_at) / RFU CDHR5 (11726645_a_at) / Fold change /veh CDHR5 (11726645_a_at) / RFU RCAN1 (11760418_a_at) / Fold change /veh RCAN1 (11760418_a_at) / RFU FAM167A (11723789_a_at) / Fold change /veh FAM167A (11723789_a_at) / RFU FAM26E (11764081_at) / Fold change /veh FAM26E (11764081_at) / RFU ISYNA1 (11749810_s_at) / Fold change /veh ISYNA1 (11749810_s_at) / RFU ACY1 (11761880_at) / Fold change /veh ACY1 (11761880_at) / RFU 11764098_at / Fold change /veh 11764098_at / RFU SAMD14 (11745864_x_at) / Fold change /veh SAMD14 (11745864_x_at) / RFU NPB (11741838_a_at) / Fold change /veh NPB (11741838_a_at) / RFU TMPRSS6 (11731388_a_at) / Fold change /veh TMPRSS6 (11731388_a_at) / RFU KRTAP10-2 (11738614_at) / Fold change /veh KRTAP10-2 (11738614_at) / RFU ARHGAP8 /// PRR5-ARHGAP8 (11727945_x_at) / Fold change /veh ARHGAP8 /// PRR5-ARHGAP8 (11727945_x_at) / RFU KRTAP5-7 /// NADSYN1 (11734609_at) / Fold change /veh KRTAP5-7 /// NADSYN1 (11734609_at) / RFU RASL12 (11751679_a_at) / Fold change /veh RASL12 (11751679_a_at) / RFU CDKN2B (11736163_a_at) / Fold change /veh CDKN2B (11736163_a_at) / RFU PRF1 (11729649_at) / Fold change /veh PRF1 (11729649_at) / RFU, ZNF638 /// ZNF638-IT1 / Fold change vs veh, ZNF638 /// ZNF638-IT1 / RFU, PANK3 / Fold change vs veh, PANK3 / RFU, SH3YL1 / Fold change vs veh, SH3YL1 / RFU, ZEB2 / Fold change vs veh, ZEB2 / RFU, NRIP1 / Fold change vs veh, NRIP1 / RFU, PTTG1IP / Fold change vs veh, PTTG1IP / RFU, CAPN2 / Fold change vs veh, CAPN2 / RFU, MED14 / Fold change vs veh, MED14 / RFU, SNORA58 / Fold change vs veh, SNORA58 / RFU, C1orf63 / Fold change vs veh, C1orf63 / RFU, LRRFIP1 / Fold change vs veh, LRRFIP1 / RFU, NDUFAF7 / Fold change vs veh, NDUFAF7 / RFU, SLC12A2 / Fold change vs veh, SLC12A2 / RFU, IBTK / Fold change vs veh, IBTK / RFU, ESF1 / Fold change vs veh, ESF1 / Fold change vs veh, TMEM50B / RFU, TAOK1 / Fold change vs veh, TAOK1 / RFU, ACBD3 / Fold change vs veh, ACBD3 / RFU, TMA16 / Fold change vs veh, TMA16 / RFU, RWDD3 / Fold change vs veh, RWDD3 / RFU, BCAT1 / Fold change vs veh, BCAT1 / RFU, EDEM3 / Fold change vs veh, EDEM3 / RFU, TMEM33 / Fold change vs veh, TMEM33 / RFU, WDR75 / Fold change vs veh, WDR75 / RFU, AHCTF1 / Fold change vs veh, AHCTF1 / RFU, TFRC / Fold change vs veh, TFRC / RFU, ZDHHC17 / Fold change vs veh, ZDHHC17 / RFU, NOM1 / Fold change vs veh, NOM1 / RFU, ARL8B / Fold change vs veh, ARL8B / RFU, ZBTB11 / Fold change vs veh, ZBTB11 / RFU, TAMM41 / Fold change vs veh, TAMM41 / RFU, KIAA1704 /// LOC100996395 / Fold change vs veh, KIAA1704 /// LOC100996395 / RFU, ING1 / Fold change vs veh, ING1 / RFU, TRMT61B / Fold change vs veh, TRMT61B / RFU, FUBP3 / Fold change vs veh, FUBP3 / RFU, TP53 / Fold change vs veh, TP53 / RFU, TNKS2 / Fold change vs veh, TNKS2 / RFU, ZFP14 / Fold change vs veh, ZFP14 / RFU, ACTR2 / Fold change vs veh, ACTR2 / RFU, PPP3R1 / Fold change vs veh, PPP3R1 / RFU, PIK3R1 / Fold change vs veh, PIK3R1 / RFU, HNRNPA1 / Fold change vs veh, HNRNPA1 / RFU, RNF170 / Fold change vs veh, RNF170 / RFU, ZNF28 / Fold change vs veh, ZNF28 / RFU, RNGTT / Fold change vs veh, RNGTT / RFU, OGT / Fold change vs veh, OGT / RFU, BRD1 / Fold change vs veh, BRD1 / RFU, MARS / Fold change vs veh, MARS / RFU, ZNF655 / Fold change vs veh, ZNF655 / RFU, FAHD1 / Fold change vs veh, FAHD1 / RFU, BDP1 / Fold change vs veh, BDP1 / RFU, LRRCC1 / Fold change vs veh, LRRCC1 / RFU, ARID1A / Fold change vs veh, ARID1A / RFU, ZNF146 / Fold change vs veh, ZNF146 / RFU, ZNF330 / Fold change vs veh, ZNF330 / RFU, GPN3 / Fold change vs veh, GPN3 / RFU, C9orf123 / Fold change vs veh, C9orf123 / RFU, N4BP2L2 / Fold change vs veh, N4BP2L2 / RFU, ARFIP1 / Fold change vs veh, ARFIP1 / RFU, FAM179B / Fold change vs veh, FAM179B / RFU, BCL10 / Fold change vs veh, BCL10 / RFU, UHRF1BP1L / Fold change vs veh, UHRF1BP1L / RFU, BET1 / Fold change vs veh, BET1 / RFU, CNOT2 / Fold change vs veh, CNOT2 / RFU, ZNF268 / Fold change vs veh, ZNF268 / Fold change vs veh, ZNF507 / RFU, DGCR2 / Fold change vs veh, DGCR2 / RFU, WDSUB1 / Fold change vs veh, WDSUB1 / Fold change vs veh, HSP90B1 /// MIR3652 / RFU, ADSS / Fold change vs veh, ADSS / RFU, GK / Fold change vs veh, GK / RFU, ZNF148 / Fold change vs veh, ZNF148 / RFU, TAF9 / Fold change vs veh, TAF9 / RFU, SLC1A5 / Fold change vs veh, SLC1A5 / RFU, SLMO2 / Fold change vs veh, SLMO2 / RFU, ABCC4 / Fold change vs veh, ABCC4 / RFU, LOC101060439 /// RAP1B / Fold change vs veh, LOC101060439 /// RAP1B / RFU, RFX7 / Fold change vs veh, RFX7 / RFU, GTPBP10 / Fold change vs veh, GTPBP10 / RFU, CNEP1R1 / Fold change vs veh, CNEP1R1 / RFU, BIVM-ERCC5 /// ERCC5 / Fold change vs veh, BIVM-ERCC5 /// ERCC5 / RFU, ILF3 / Fold change vs veh, ILF3 / RFU 11762660_at / Fold change /veh 11762660_at / RFU VCAN (11757783_s_at) / Fold change /veh VCAN (11757783_s_at) / RFU DDX43 (11728927_at) / Fold change /veh DDX43 (11728927_at) / RFU KRT8 (11758188_x_at) / Fold change /veh KRT8 (11758188_x_at) / RFU NKD1 (11759106_at) / Fold change /veh NKD1 (11759106_at) / RFU SRD5A1 (11742802_a_at) / Fold change /veh SRD5A1 (11742802_a_at) / RFU TPSAB1 /// TPSB2 (11721975_s_at) / Fold change /veh TPSAB1 /// TPSB2 (11721975_s_at) / RFU GSTM3 (11746129_a_at) / Fold change /veh GSTM3 (11746129_a_at) / RFU IL23R (11737362_x_at) / Fold change /veh IL23R (11737362_x_at) / RFU TMEM51 (11727254_a_at) / Fold change /veh TMEM51 (11727254_a_at) / RFU PIWIL2 (11732686_x_at) / Fold change /veh PIWIL2 (11732686_x_at) / RFU ORM1 (11744905_x_at) / Fold change /veh ORM1 (11744905_x_at) / RFU CCDC152 (11743942_at) / Fold change /veh CCDC152 (11743942_at) / RFU ECM1 (11717891_a_at) / Fold change /veh ECM1 (11717891_a_at) / RFU IL23R (11748794_a_at) / Fold change /veh IL23R (11748794_a_at) / RFU TNFAIP8L3 (11732012_x_at) / Fold change /veh TNFAIP8L3 (11732012_x_at) / RFU MBOAT4 (11741988_at) / Fold change /veh MBOAT4 (11741988_at) / RFU 11764193_at / Fold change /veh 11764193_at / RFU TMEM53 (11763286_at) / Fold change /veh TMEM53 (11763286_at) / RFU MAGEB2 (11727129_at) / Fold change /veh MAGEB2 (11727129_at) / RFU TMEM200A (11744735_a_at) / Fold change /veh TMEM200A (11744735_a_at) / RFU CCDC152 (11751479_a_at) / Fold change /veh CCDC152 (11751479_a_at) / RFU FAM211A (11726209_a_at) / Fold change /veh FAM211A (11726209_a_at) / RFU RGS16 (11746705_a_at) / Fold change /veh RGS16 (11746705_a_at) / RFU VCAN (11755009_s_at) / Fold change /veh VCAN (11755009_s_at) / RFU RHOB (11743442_s_at) / Fold change /veh RHOB (11743442_s_at) / RFU RGS16 (11720943_a_at) / Fold change /veh RGS16 (11720943_a_at) / RFU RGS16 (11720944_at) / Fold change /veh RGS16 (11720944_at) / RFU, VPS4B / Fold change vs veh, VPS4B / RFU, CREB1 / Fold change vs veh, CREB1 / RFU, DNAJC13 / Fold change vs veh, DNAJC13 / RFU, GNAQ / Fold change vs veh, GNAQ / RFU, CDK5R1 / Fold change vs veh, CDK5R1 / RFU, ZRANB3 / Fold change vs veh, ZRANB3 / RFU, CUL4A / Fold change vs veh, CUL4A / RFU, CCNY / Fold change vs veh, CCNY / RFU, UFL1 / Fold change vs veh, UFL1 / RFU, COG3 / Fold change vs veh, COG3 / RFU, DIAPH2 / Fold change vs veh, DIAPH2 / RFU, SKA2 / Fold change vs veh, SKA2 / RFU, AFF3 / Fold change vs veh, AFF3 / RFU, LMF1 / Fold change vs veh, LMF1 / RFU, IPO11 / Fold change vs veh, IPO11 / RFU, DFFB / Fold change vs veh, DFFB / RFU, FOXP1 / Fold change vs veh, FOXP1 / RFU, CARD8 / Fold change vs veh, CARD8 / RFU, STRN3 / Fold change vs veh, STRN3 / RFU, ADK / Fold change vs veh, ADK / RFU, RASSF2 / Fold change vs veh, RASSF2 / RFU, WIPF1 / Fold change vs veh, WIPF1 / RFU, LARP1B / Fold change vs veh, LARP1B / RFU, RASA1 / Fold change vs veh, RASA1 / RFU, RB1 / Fold change vs veh, RB1 / RFU, PPFIA1 / Fold change vs veh, PPFIA1 / RFU, MAT2A / Fold change vs veh, MAT2A / RFU, CCT5 / Fold change vs veh, CCT5 / RFU, WDR92 / Fold change vs veh, WDR92 / RFU, CUX1 / Fold change vs veh, CUX1 / RFU, TTC7A / Fold change vs veh, TTC7A / RFU, TMEM135 / Fold change vs veh, TMEM135 / RFU, DEPTOR / Fold change vs veh, DEPTOR / RFU, CPM / Fold change vs veh, CPM / RFU, DNAJB6 / Fold change vs veh, DNAJB6 / RFU, CACNA2D3 / Fold change vs veh, CACNA2D3 / RFU, DTX4 / Fold change vs veh, DTX4 / RFU, TFCP2 / Fold change vs veh, TFCP2 / RFU, GMCL1 /// GMCL1P1 / Fold change vs veh, GMCL1 /// GMCL1P1 / RFU, AEBP2 / Fold change vs veh, AEBP2 / RFU, SNHG1 /// SNORD22 /// SNORD25 /// SNORD26 /// SNORD27 /// SNORD28 /// SNORD29 /// SNORD31 / Fold change vs veh, SNHG1 /// SNORD22 /// SNORD25 /// SNORD26 /// SNORD27 /// SNORD28 /// SNORD29 /// SNORD31 / Fold change (Aza/veh), C12orf56 (ProbeSet 11735607_a_at) / Fold change (ACY-1035/veh), C12orf56 (ProbeSet 11735607_a_at) / Fold change (Aza/veh), FGFR1OP (ProbeSet 11751329_s_at) / Fold change (ACY-1035/veh), FGFR1OP (ProbeSet 11751329_s_at) / Fold change (Aza/veh), VPS36 (ProbeSet 11739960_a_at) / Fold change (ACY-1035/veh), VPS36 (ProbeSet 11739960_a_at) / RFU SYPL1 (11715823_x_at) / Fold change /veh SYPL1 (11715823_x_at) / RFU IGFBP7 (11715501_s_at) / Fold change /veh IGFBP7 (11715501_s_at) / RFU REEP3 (11722064_at) / Fold change /veh REEP3 (11722064_at) / RFU IGLL1 (11728026_x_at) / Fold change /veh IGLL1 (11728026_x_at): dose or concentration left out as unconfirmed
Conditions: ProbeSet 11732165_x_at; LIST D

In the case of `Nc1ccc(-c2cccs2)cc1NC(=O)c1ccc2c(c1)cc(C1CC1)n2CCN1CCOCC1` [ACY-1035], the “Fold change vs veh, LMF1” value is reported as 0.85.

— article PMC5218480 (PLoS ONE, 2017)
